# Test results: article PMC6718548, “Tau pathology reduction with SM07883, a novel, potent, and selective oral DYRK1A inhibitor: A potential therapeutic for Alzheimer's disease” (Aging Cell, 2019)
# Like-named read-outs stand apart in the source and are kept apart here.
# Tests used:
# GSK‐3β = molecular target: T1, GSK‐3β (Homo sapiens, UniProt P49841); assay: Kinase IC50 (SelectScreen); assay type: biochemical; conditions: Suppl. Table 2 comparison with commercially available inhibitors; read-out: Kinase IC50 GSK-3b
# T1 construct: purchased Thermo Fisher SelectScreen service
# [1] = tested on: phosphorylated tau at Thr212 in HEK293T cells; assay: pTau Thr212 sandwich ELISA in double-transfected HEK293T cells; assay type: cell-based, human; conditions: HEK293T co-transfected with DYRK1A and MAPT, overnight treatment, single lot, read-out: Cell assay EC50 pTau at Thr212
# Text: For the generation of the DYRK1A- and MAPT-overexpressing cells, HEK293T cells were transiently transfected with DYRK1A and MAPT genes. Specifically, expression vectors pCMV6-XL4 and pCMV6-Entry expressing DYRK1A and MAPT, alongside an empty vector control (pCI, OriGene, Catalog #SC314641 and RC216166, respectively; Promega, Catalog #E1731) and the material was amplified and purified using a custom MaxiPrep service (GENEWIZ, South Plainfield, NJ).
# (§1) For ELISA assays, native SH-SY5Y cells, or transiently double-transfected HEK293T cells were dissociated by treatment with trypsin-EDTA and seeded in 96-well flat-bottom cell culturing plate before administration of 3-fold serial dilution of SM07883 overnight.
# (§2) Following compound treatment, cells were washed and lysed with 1x RIPA buffer containing phosphatase and protease inhibitors transferred to 96-well V-bottom collection plates for centrifugation and removal of insoluble material.
# The pTau Thr212 ELISA 96-well flat-bottom plates, were coated with anti-HT7 capture antibody (Catalog MN1000, Thermo Fisher, Waltham, […]) diluted 1:300 in 1X PBS at 4°C. After overnight incubation, coated plates were washed with 1× PBS containing 0.05% Tween-20 and blocked for 1hr 2% BSA (A7030-50G, Sigma-Aldrich, St. Louis, MO), then washed prior to sample loading.
# For the pTau Thr212 sandwich ELISA, cell lysates were directly transferred to the anti-HT7 capture, antibody-coated, and BSA-blocked ELISA plates for 2hrs. Supernatant was then removed, and plates were washed with 1× PBS-0.05% Tween-20, followed by addition of 100 µL per well anti-phosphorylated tau Thr212 antibody (Catalog 44-740G, Thermo Fisher) diluted 1:200 in 1× PBS for 2hrs. Plates were washed and probed with an anti-rabbit/HRP conjugate (Cell Signaling Technology, 7074S) for 1hr then washed before a TMB substrate solution (Catalog N301, Thermo Fisher) was added. When a deep blue color was observed, 100 µL per well of stop solution (Catalog N600, Thermo Fisher) was added.
# (§3) Colorimetric detection of pT212Tau or pS396Tau signal was read at 450 nm using the Cytation 3 Cell Imaging Multi-Mode Reader (BioTek, Winooski, VT). The signal was used to plot, draw the curve fitting, and determine the EC50 value for SM07883 in Prism 7 (GraphPad, La Jolla, CA).
# [2] = tested on: phosphorylated tau at Ser396 in SH-SY5Y cells; assay: pSer396Tau ELISA in SH-SY5Y neuroblastoma cells; assay type: cell-based, human; conditions: overnight (16 hr) treatment, single lot, read-out: Cell assay EC50 pTau at Ser396
# Text: as §1, §2, §3
# DYRK1a = molecular target: T2, DYRK1a (Homo sapiens, UniProt Q13627); assay: DYRK1A kinase assay (Z-Lyte / SelectScreen IC50); assay type: biochemical; conditions: Suppl. Table 2 comparison with commercially available inhibitors
# T2 construct: purchased Thermo Fisher Scientific
# T1 sequence (P49841 whole entry): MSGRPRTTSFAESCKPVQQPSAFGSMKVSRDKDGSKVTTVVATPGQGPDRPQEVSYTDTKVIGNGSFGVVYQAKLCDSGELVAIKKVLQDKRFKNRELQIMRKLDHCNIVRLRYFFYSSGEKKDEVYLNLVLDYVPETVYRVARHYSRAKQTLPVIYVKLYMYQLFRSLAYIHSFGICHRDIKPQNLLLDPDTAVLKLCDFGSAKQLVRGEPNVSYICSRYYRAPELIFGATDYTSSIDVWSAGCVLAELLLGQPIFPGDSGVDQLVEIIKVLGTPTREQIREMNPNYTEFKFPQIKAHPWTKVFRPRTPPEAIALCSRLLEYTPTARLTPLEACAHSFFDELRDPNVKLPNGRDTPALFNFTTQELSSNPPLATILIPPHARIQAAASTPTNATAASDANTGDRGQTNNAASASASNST
SMILES,IC50 (GSK‐3β) [µM],EC50 [1] [µM],EC50 [2] [µM],IC50 (DYRK1a) [µM],"EC50 ([1]; Homo sapiens, HEK-293T) [µM]",EC50 ([2]; Homo sapiens) [µM]
COC(=N)c1nc2ccc3ncnc(Nc4ccc(Cl)cc4Cl)c3c2s1 [EHT-5372],> 10,3.8,2.5,0.083,,
"Cc1ccc(C(=O)Nc2c[nH]nc2C(=O)NCCCOC(C)C)cn1 [Compound A, 6-Methyl-N-[3-[[3-(1-methylethoxy)propyl]carbamoyl]-1H-pyrazol-4-yl]pyridine-3-carboxamide]",,,,0.761,> 10,0.006
O=C(O)c1ccc2c(c1)nc(Nc1cccc(Cl)c1)c1ccncc12 [CX-4945],,,,,0.428,5.2
Cc1c[nH]c(-c2cnc(NCCNc3ccc(C#N)cn3)nc2-c2ccc(Cl)cc2Cl)n1 [CHIR-99021],,,,,> 10,0.252
COc1ccc2c(c1)[nH]c1c(C)nccc12 [Harmine],,,,,0.233,> 10
CCN1/C(=C/C(C)=O)Sc2ccc(O)cc21 [INDY],> 10,> 10,> 10,,,
"O=C(O[C@@H]1Cc2c(O)cc(O)cc2O[C@@H]1c1cc(O)c(O)c(O)c1)c1cc(O)c(O)c(O)c1 [EGCG, Epigallocatechin gallate]",> 10,> 10,> 10,1.4,,
CCN1/C(=C/C(C)=O)Sc2ccc(OC)cc21 [TG003],> 10,> 10,> 10,,,
O=C1NC(Nc2ccccc2)=N/C1=C\c1ccc2c(c1)OCO2 [Leucettine L41],1.1,0.072,1.4,,,
O=c1sn(-c2cccc3ccccc23)c(=O)n1Cc1ccccc1 [Tideglusib],,,,,> 10,> 10
